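96-well plates; 48 h exposure; 5 concentrations. Endpoints by linear interpolation between flanking doses. Not reached: highest tested concentration assigned. TGI denotes the concentration required for complete inhibition of growth.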
What was measured:
Experiment in all cases: DTP human tumour cell line panel, 48 h
786-0 renal = tested on: 786-0 renal
A498 renal = tested on: A498 renal
A549 NSCLC = tested on: A549 NSCLC
ACHN renal = tested on: ACHN renal
BT-549 breast = tested on: BT-549 breast
CAKI-1 renal = tested on: CAKI-1 renal
CCRF-CEM leukemia = tested on: CCRF-CEM leukemia
COLO 205 colon = tested on: COLO 205 colon
DU-145 prostate = tested on: DU-145 prostate
EKVX NSCLC = tested on: EKVX NSCLC
HCC-2998 colon = tested on: HCC-2998 colon
HCT-116 colon = tested on: HCT-116 colon
HCT-15 colon = tested on: HCT-15 colon
HL-60(TB) leukemia = tested on: HL-60(TB) leukemia
HOP-62 NSCLC = tested on: HOP-62 NSCLC
HOP-92 NSCLC = tested on: HOP-92 NSCLC
HS 578T breast = tested on: HS 578T breast
HT29 colon = tested on: HT29 colon
IGROV1 ovarian = tested on: IGROV1 ovarian
K-562 leukemia = tested on: K-562 leukemia
KM12 colon = tested on: KM12 colon
LOX IMVI melanoma = tested on: LOX IMVI melanoma
M14 melanoma = tested on: M14 melanoma
MALME-3M melanoma = tested on: MALME-3M melanoma
MCF7 breast = tested on: MCF7 breast
MDA-MB-231 breast = tested on: MDA-MB-231 breast
MDA-MB-435 = tested on: MDA-MB-435
MDA-N = tested on: MDA-N
MOLT-4 leukemia = tested on: MOLT-4 leukemia
NCI-H226 lung = tested on: NCI-H226 lung
NCI-H23 lung = tested on: NCI-H23 lung
NCI-H460 lung = tested on: NCI-H460 lung
NCI-H522 lung = tested on: NCI-H522 lung
NCI/ADR-RES ovarian = tested on: NCI/ADR-RES ovarian
OVCAR-3 ovarian = tested on: OVCAR-3 ovarian
OVCAR-4 ovarian = tested on: OVCAR-4 ovarian
OVCAR-5 ovarian = tested on: OVCAR-5 ovarian
OVCAR-8 ovarian = tested on: OVCAR-8 ovarian
PC-3 prostate = tested on: PC-3 prostate
RPMI-8226 leukemia = tested on: RPMI-8226 leukemia
RXF 393 renal = tested on: RXF 393 renal
SF-268 CNS = tested on: SF-268 CNS
SF-295 CNS = tested on: SF-295 CNS
SF-539 CNS = tested on: SF-539 CNS
SK-MEL-2 melanoma = tested on: SK-MEL-2 melanoma
SK-MEL-28 melanoma = tested on: SK-MEL-28 melanoma
SK-MEL-5 melanoma = tested on: SK-MEL-5 melanoma
SK-OV-3 ovarian = tested on: SK-OV-3 ovarian
SN12C renal = tested on: SN12C renal
SNB-19 CNS = tested on: SNB-19 CNS
SNB-75 CNS = tested on: SNB-75 CNS
SR leukemia = tested on: SR leukemia
SW-620 colon = tested on: SW-620 colon
T-47D breast = tested on: T-47D breast
TK-10 renal = tested on: TK-10 renal
U251 CNS = tested on: U251 CNS
UACC-257 melanoma = tested on: UACC-257 melanoma
UACC-62 melanoma = tested on: UACC-62 melanoma
UO-31 renal = tested on: UO-31 renal

Structure (SMILES): CN1c2ccc(O)c(O)c2-c2cc(O)cc3c2C1CCC3 (stereo not drawn)
- TGI (786-0 renal): 35.5 µM
- TGI (A498 renal): > 100 µM
- TGI (A549 NSCLC): > 74.1 µM
- TGI (ACHN renal): 31.3 µM
- TGI (BT-549 breast): 39.8 µM
- TGI (CAKI-1 renal): 48.9 µM
- TGI (CCRF-CEM leukemia): 9.61 µM
- TGI (COLO 205 colon): 47.5 µM
- TGI (DU-145 prostate): 30.6 µM
- TGI (EKVX NSCLC): 46.9 µM
- TGI (HCC-2998 colon): 49.1 µM
- TGI (HCT-116 colon): 47.2 µM
- TGI (HCT-15 colon): 59.4 µM
- TGI (HL-60(TB) leukemia): 39.2 µM
- TGI (HOP-62 NSCLC): 32.6 µM
- TGI (HOP-92 NSCLC): 33.3 µM
- TGI (HS 578T breast): > 72.9 µM
- TGI (HT29 colon): 66.2 µM
- TGI (IGROV1 ovarian): 27.9 µM
- TGI (K-562 leukemia): 40.8 µM
- TGI (KM12 colon): > 61 µM
- TGI (LOX IMVI melanoma): 26.3 µM
- TGI (M14 melanoma): 34.8 µM
- TGI (MALME-3M melanoma): 31.3 µM
- TGI (MCF7 breast): 41.5 µM
- TGI (MDA-MB-231 breast): > 66.1 µM
- TGI (MDA-MB-435): 31 µM
- TGI (MDA-N): 38.3 µM
- TGI (MOLT-4 leukemia): 35.6 µM
- TGI (NCI-H226 lung): > 60.2 µM
- TGI (NCI-H23 lung): 58.3 µM
- TGI (NCI-H460 lung): > 59.5 µM
- TGI (NCI-H522 lung): 28.4 µM
- TGI (NCI/ADR-RES ovarian): > 64.6 µM
- TGI (OVCAR-3 ovarian): 19.5 µM
- TGI (OVCAR-4 ovarian): 28.4 µM
- TGI (OVCAR-5 ovarian): 50.7 µM
- TGI (OVCAR-8 ovarian): 65.6 µM
- TGI (PC-3 prostate): 49.2 µM
- TGI (RPMI-8226 leukemia): 25.8 µM
- TGI (RXF 393 renal): 24.3 µM
- TGI (SF-268 CNS): 33 µM
- TGI (SF-295 CNS): > 100 µM
- TGI (SF-539 CNS): 42.2 µM
- TGI (SK-MEL-2 melanoma): 58.6 µM
- TGI (SK-MEL-28 melanoma): 48.7 µM
- TGI (SK-MEL-5 melanoma): 35.5 µM
- TGI (SK-OV-3 ovarian): > 100 µM
- TGI (SN12C renal): 51.7 µM
- TGI (SNB-19 CNS): > 100 µM
- TGI (SNB-75 CNS): 34.4 µM
- TGI (SR leukemia): 24.9 µM
- TGI (SW-620 colon): 63.5 µM
- TGI (T-47D breast): 42.6 µM
- TGI (TK-10 renal): 32.9 µM
- TGI (U251 CNS): > 65 µM
- TGI (UACC-257 melanoma): 42.2 µM
- TGI (UACC-62 melanoma): 32.3 µM
- TGI (UO-31 renal): 29.6 µM

Structure (SMILES): CCN(CC)CCCNc1[nH]ncc2cc3c(nc4ccc(OC)cc43)c(C)c12
- TGI (786-0 renal): 15.4 µM
- TGI (A498 renal): 30.7 µM
- TGI (A549 NSCLC): 22.2 µM
- TGI (ACHN renal): 20.9 µM
- TGI (BT-549 breast): 30.9 µM
- TGI (CAKI-1 renal): 24.7 µM
- TGI (CCRF-CEM leukemia): 16.5 µM
- TGI (COLO 205 colon): 21.2 µM
- TGI (DU-145 prostate): 15.9 µM
- TGI (EKVX NSCLC): 31.4 µM
- TGI (HCC-2998 colon): 18.8 µM
- TGI (HCT-116 colon): 13 µM
- TGI (HCT-15 colon): 41.3 µM
- TGI (HL-60(TB) leukemia): 0.0166 µM
- TGI (HOP-62 NSCLC): 16.4 µM
- TGI (HOP-92 NSCLC): 29.8 µM
- TGI (HS 578T breast): 28.5 µM
- TGI (HT29 colon): 16.2 µM
- TGI (IGROV1 ovarian): 19.5 µM
- TGI (K-562 leukemia): 16.3 µM
- TGI (KM12 colon): 15.7 µM
- TGI (LOX IMVI melanoma): 15.8 µM
- TGI (M14 melanoma): 25.6 µM
- TGI (MALME-3M melanoma): 28.3 µM
- TGI (MCF7 breast): 16.6 µM
- TGI (MDA-MB-231 breast): 21.2 µM
- TGI (MDA-MB-435): 23.1 µM
- TGI (MDA-N): 22.3 µM
- TGI (MOLT-4 leukemia): 10.9 µM
- TGI (NCI-H226 lung): 22.6 µM
- TGI (NCI-H23 lung): 24.6 µM
- TGI (NCI-H460 lung): 17 µM
- TGI (NCI-H522 lung): 17.4 µM
- TGI (NCI/ADR-RES ovarian): > 100 µM
- TGI (OVCAR-3 ovarian): 19.1 µM
- TGI (OVCAR-4 ovarian): 13.8 µM
- TGI (OVCAR-5 ovarian): 24.8 µM
- TGI (OVCAR-8 ovarian): 18.9 µM
- TGI (PC-3 prostate): 16.5 µM
- TGI (RPMI-8226 leukemia): 46.8 µM
- TGI (RXF 393 renal): 17.7 µM
- TGI (SF-268 CNS): > 48.1 µM
- TGI (SF-295 CNS): 25.7 µM
- TGI (SF-539 CNS): 15.2 µM
- TGI (SK-MEL-2 melanoma): 33.9 µM
- TGI (SK-MEL-28 melanoma): 30.8 µM
- TGI (SK-MEL-5 melanoma): 29.4 µM
- TGI (SK-OV-3 ovarian): 22.3 µM
- TGI (SN12C renal): 18.7 µM
- TGI (SNB-19 CNS): 18 µM
- TGI (SNB-75 CNS): 23 µM
- TGI (SR leukemia): 33.1 µM
- TGI (SW-620 colon): 19.4 µM
- TGI (T-47D breast): 26.5 µM
- TGI (TK-10 renal): 28.8 µM
- TGI (U251 CNS): 16 µM
- TGI (UACC-257 melanoma): 33.7 µM
- TGI (UACC-62 melanoma): 35.8 µM
- TGI (UO-31 renal): 23.8 µM

Reference: PubChem BioAssay (NCI)
